Measured values from patent US20110046056A1, “APOA-1 PEPTIDE MIMETICS” (priority 2007, published 2011).
Like-named read-outs stand apart in the source and are kept apart here. *1 amine or outer side, *2 acyl side, *3 side chain or, on linkers, in order; H or OH if unused. Where a SMILES comes first, the peptide text is derived from it. Bridges are numbered along the chain shown (N, C = ends). Where no end group is shown, it is not given here. [ ]: non-standard residue; d: D form. S6H = (2S)-2-aminooct-7-enoic acid, C=CCCCC[C@H](N[*:1])C(=O)[*:2]; Leu(5,5,5,5',5',5'-F6) = N[C@@H](CC(C(F)(F)F)C(F)(F)F)C(=O)O; dNle(6-ylidene) = O=C([C@@H](CCCC=[*:3])N[*:1])[*:2]; dGly(6-heptenyl) = C=CCCCCC[C@@H](N)C(=O)O; Ala(5-hexenyl) = C=CCCCCC[C@H](N)C(=O)O; dNle(6-vinyl) = C=CCCCC[C@@H](N)C(=O)O; Gla = N[C@@H](CC(C(=O)O)C(=O)O)C(=O)O; Gly(octyl) = CCCCCCCC[C@H](N)C(=O)O; R5H = not defined here; Aib = CC(C)(N)C(=O)O

Legend:
[1] = Lipid (liposome) solubilization, turbidimetric method; assay type: biochemical; conditions: for IC50: read-out: IC50 in the liposome solubilization assay
Procedure: As noted above, the other important parameter was phospholipid solubilization. A turbidimetric method is used to determine the solubilization capacity of peptides of the present invention. First, a three-fold serial titration of the peptide is prepared in a polypropylene v-shaped 96-well plate. The eight-point titration is done in phosphate-buffered saline (PBS, pH 7.5) or DMSO from a starting concentration that allows for addition to an optically-clear bottomed assay plate in <100 μl aliquots to yield a starting concentration of 500 μM in 200 μl final well volume. PBS is then added to each well to bring the total volume to 100 μl. Any bubbles in the wells must be dispersed to avoid erroneous results. Next, from a turbid but homogeneous emulsion of dimyristoyl phosphatidylcholine at 0.5 mg/ml in PBS, 100 μl is added to each well in the assay plate, the plate is inserted into the NEPHELOSTAR (BMG LABTECH INSTRUMENTS), and readings are taken immediately and every 15 minutes over 2 hours.
A true 0-point value is calculated by averaging the readings of the wells with phospholipid but no peptide. For each peptide concentration, a percent decrease in turbidity is calculated by subtracting the 0-point value from the corresponding 30 and 120 minute readings and dividing by that 0-point value. Finally the EC50 values for both time points are determined using PRISM software (Table 2).

[2] = target: T1, ABCA1 cholesterol transporter protein (Mus musculus, UniProt P41233); assay: ABCA1-dependent cholesterol efflux from RAW mouse macrophage cells (in vitro RCT assay); assay type: cell-based
T1 construct: endogenous in cells
T1 sequence (P41233 whole entry): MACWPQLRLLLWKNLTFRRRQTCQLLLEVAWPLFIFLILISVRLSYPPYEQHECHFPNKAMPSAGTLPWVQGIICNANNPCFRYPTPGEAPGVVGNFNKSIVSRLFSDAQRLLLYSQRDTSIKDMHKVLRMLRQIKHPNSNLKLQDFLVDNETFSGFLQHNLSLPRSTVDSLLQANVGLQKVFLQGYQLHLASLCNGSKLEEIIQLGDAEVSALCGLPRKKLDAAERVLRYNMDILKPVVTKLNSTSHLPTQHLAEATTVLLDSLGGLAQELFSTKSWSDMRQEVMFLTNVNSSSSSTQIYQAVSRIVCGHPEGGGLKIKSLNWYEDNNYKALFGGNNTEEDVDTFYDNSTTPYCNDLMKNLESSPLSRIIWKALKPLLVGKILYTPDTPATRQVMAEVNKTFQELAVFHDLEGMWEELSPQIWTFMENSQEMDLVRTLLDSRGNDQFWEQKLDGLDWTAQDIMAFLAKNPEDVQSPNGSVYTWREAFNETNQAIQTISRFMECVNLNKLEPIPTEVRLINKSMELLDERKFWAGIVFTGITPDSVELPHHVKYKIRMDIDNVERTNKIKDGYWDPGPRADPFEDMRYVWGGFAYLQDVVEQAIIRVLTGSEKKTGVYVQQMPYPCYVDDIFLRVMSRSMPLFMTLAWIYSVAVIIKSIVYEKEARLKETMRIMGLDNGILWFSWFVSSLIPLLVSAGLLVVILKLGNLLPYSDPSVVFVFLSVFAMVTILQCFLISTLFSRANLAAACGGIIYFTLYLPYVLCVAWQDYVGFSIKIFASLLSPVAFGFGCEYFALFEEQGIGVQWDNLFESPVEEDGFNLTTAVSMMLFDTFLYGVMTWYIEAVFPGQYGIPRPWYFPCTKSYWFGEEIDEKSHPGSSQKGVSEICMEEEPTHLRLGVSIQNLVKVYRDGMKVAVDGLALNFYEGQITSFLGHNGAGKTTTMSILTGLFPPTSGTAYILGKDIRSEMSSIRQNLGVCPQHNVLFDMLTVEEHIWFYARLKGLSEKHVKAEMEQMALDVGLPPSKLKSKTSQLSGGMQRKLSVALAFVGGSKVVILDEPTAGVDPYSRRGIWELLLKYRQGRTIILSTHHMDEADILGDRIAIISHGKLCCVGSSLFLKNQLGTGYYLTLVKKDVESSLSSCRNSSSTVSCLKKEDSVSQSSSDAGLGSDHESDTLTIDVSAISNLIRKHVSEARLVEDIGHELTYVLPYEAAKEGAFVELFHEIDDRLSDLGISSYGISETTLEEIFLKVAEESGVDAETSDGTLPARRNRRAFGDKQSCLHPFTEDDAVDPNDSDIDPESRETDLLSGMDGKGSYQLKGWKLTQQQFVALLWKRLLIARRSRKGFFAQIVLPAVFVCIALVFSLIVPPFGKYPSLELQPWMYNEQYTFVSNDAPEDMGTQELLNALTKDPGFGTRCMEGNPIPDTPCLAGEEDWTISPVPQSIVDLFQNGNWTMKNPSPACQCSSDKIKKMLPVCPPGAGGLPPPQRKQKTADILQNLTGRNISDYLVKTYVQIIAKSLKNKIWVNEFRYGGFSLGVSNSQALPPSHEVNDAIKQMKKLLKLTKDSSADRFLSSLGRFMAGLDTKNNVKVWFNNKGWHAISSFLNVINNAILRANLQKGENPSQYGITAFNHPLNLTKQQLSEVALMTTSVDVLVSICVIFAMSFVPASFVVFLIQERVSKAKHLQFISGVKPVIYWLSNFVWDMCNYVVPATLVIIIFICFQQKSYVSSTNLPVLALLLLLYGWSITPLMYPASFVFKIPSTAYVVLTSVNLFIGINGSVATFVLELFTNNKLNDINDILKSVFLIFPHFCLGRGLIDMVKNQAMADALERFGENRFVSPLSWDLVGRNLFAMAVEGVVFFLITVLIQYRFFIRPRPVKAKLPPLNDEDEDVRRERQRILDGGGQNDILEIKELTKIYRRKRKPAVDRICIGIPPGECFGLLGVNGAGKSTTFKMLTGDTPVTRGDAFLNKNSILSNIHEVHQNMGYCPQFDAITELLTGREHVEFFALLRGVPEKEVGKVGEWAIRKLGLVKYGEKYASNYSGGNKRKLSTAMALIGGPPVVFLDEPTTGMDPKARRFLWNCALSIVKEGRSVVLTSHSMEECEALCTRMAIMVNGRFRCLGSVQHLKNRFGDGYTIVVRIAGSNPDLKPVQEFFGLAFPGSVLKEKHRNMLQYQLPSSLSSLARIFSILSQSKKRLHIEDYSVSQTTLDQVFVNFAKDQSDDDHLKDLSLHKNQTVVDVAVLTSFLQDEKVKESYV
Source text: Peptides of the present invention were designed based on amphipathic properties and their abilities to solubilize phospholipids and promote cholesterol efflux. The most direct functional measurement of efficacy for the ApoA-1 peptide mimetic is its capacity to improve the efflux of cholesterol from the cell. The RAW and J774 cell lines are reliable mouse macrophage cell lines frequently used in the art for this purpose. […] The RAW cell line is preferred and recited in the description below.
In the present assay, the RAW cells are plated at 1.5×10^5 cells/200 μl/well/48-well plate in DMEM complete medium (with 10% FBS from INVITROGEN and 1% penicillin-streptomycin-glutamine from GIBCO) and ^3H-cholesterol at 5 μCi/ml. After 24 hours incubation in a moist 37° C. atmosphere with 5% CO2, the spent medium is removed, the cells are washed once with serum-free DMEM (0.1% fatty acid free bovine serum albumin replaces the FBS), and fresh serum-free medium (200 μl) is added to each well. After overnight incubation in the serum-free medium to allow the cellular cholesterol pools to equilibrate, the spent medium is removed, and fresh serum-free medium is added with/without CPT-cAMP (150 μM final). Eight-point serial titrations of the peptide/s being tested are added at this time (duplicate titrations in plain medium without cAMP and duplicate titrations in medium containing cAMP).
After 24 hours incubation in the various conditions, the medium is harvested from each well and 50 μl aliquots are counted. The cells are then lysed by adding 500 μl of HEPES/Triton lysis buffer to each well. The lysis is facilitated by freezing and thawing once. After thawing, the lysates are mixed well and 50 μl aliquots are counted.
The percent efflux of each peptide in each medium condition (±cAMP) is calculated by dividing the total counts in the medium by the sum of the total counts in the medium and lysate. The percent efflux seen with plain medium is subtracted from the percent efflux seen with the cAMP-stimulated efflux to yield the reported ABCA1-stimulated values. EC50 values are determined using PRISM software (Table 2).

[3] = read-out: EC50 in the cholesterol efflux assay (RCT in vitro assay)

C=CCCCC[C@@H](NC(=O)[C@H](CCC(=O)O)NC(=O)[C@H](CC(N)=O)NC(=O)[C@H](CC(C)C)NC(=O)[C@H](CCCCN)NC(=O)[C@H](CCC(=O)O)NC(=O)[C@H](CCCNC(=N)N)NC(=O)[C@H](Cc1ccccc1)NC(=O)[C@H](CCC(=O)O)NC(=O)[C@H](CC(=O)O)NC(=O)[C@H](CC(C)C)NC(=O)[C@@H](NC(=O)[C@@H]1CCCN1C(C)=O)C(C)C)C(=O)N[C@@H](CC(C)C)C(=O)N[C@@H](CCC(=O)O)C(=O)N[C@@H](C)C(=O)N[C@@H](CC(C)C)C(=O)N[C@@H](CCCCN)C(=O)N[C@@H](CCC(N)=O)C(=O)N[C@@H](CCCCN)C(=O)N[C@@H](CC(C)C)C(=O)N[C@@H](CCCCN)C(N)=O [SEQ ID NO 18, PVLDEFREKLNER6HLEALKQKLK] (Ac-PVLDEFREKLNE[dNle(6-vinyl)]LEALKQKLK-NH2; C-terminus assumed)
IC50 [1]: 32 µM

C=CCCC[C@@H](NC(=O)[C@H](CCC(=O)O)NC(=O)[C@H](CC(N)=O)NC(=O)[C@H](CC(C)C)NC(=O)[C@@H](CCCC=C)NC(=O)[C@H](CCC(=O)O)NC(=O)[C@H](CCCNC(=N)N)NC(=O)[C@H](Cc1ccccc1)NC(=O)[C@H](CCC(=O)O)NC(=O)[C@H](CC(=O)O)NC(=O)[C@H](CC(C)C)NC(=O)[C@@H](NC(=O)[C@@H]1CCCN1C(C)=O)C(C)C)C(=O)N[C@@H](CC(C)C)C(=O)N[C@@H](CCC(=O)O)C(=O)N[C@@H](C)C(=O)N[C@@H](CC(C)C)C(=O)N[C@@H](CCCCN)C(=O)N[C@@H](CCC(N)=O)C(=O)N[C@@H](CCCCN)C(=O)N[C@@H](CC(C)C)C(=O)N[C@@H](CCCCN)C(N)=O [SEQ ID NO 9, PVLDEFRER5HLNER5HLEALKQKLK] (Ac-PVLDEFRE[dNle(6-ylidene)]LNE[dNle(6-ylidene)]LEALKQKLK-NH2; C-terminus assumed)
IC50 [1]: 91 µM

CC(=O)N1CCC[C@H]1C(=O)N[C@H](C(=O)N[C@@H](CC(C)C)C(=O)N[C@@H](CC(=O)O)C(=O)N[C@@H](CCC(=O)O)C(=O)N[C@@H](Cc1ccccc1)C(=O)N[C@@H](CCCNC(=N)N)C(=O)N[C@@H](CC(C(=O)O)C(=O)O)C(=O)N[C@@H](CCCCN)C(=O)N[C@@H](CC(C)C)C(=O)N[C@@H](CC(N)=O)C(=O)N[C@@H](CCC(=O)O)C(=O)N[C@@H](C)C(=O)N[C@@H](CC(C)C)C(=O)N[C@@H](CCC(=O)O)C(=O)N[C@@H](C)C(=O)N[C@@H](CC(C)C)C(=O)N[C@@H](CCCCN)C(=O)N[C@@H](CCC(N)=O)C(=O)N[C@@H](CCCCN)C(=O)N[C@@H](CC(C)C)C(=O)N[C@@H](CCCCN)C(N)=O)C(C)C [compound 3] (Ac-PVLDEFR[Gla]KLNEALEALKQKLK-NH2; C-terminus assumed)
LIPID SOLUBILIZATION IC50 ([1]; Measured at 2 h): NOT ACTIVE

CC(=O)N1CCC[C@H]1C(=O)N[C@H](C(=O)N[C@@H](CC(C)C)C(=O)N[C@@H](CC(=O)O)C(=O)N[C@@H](CCC(=O)O)C(=O)N[C@@H](Cc1ccccc1)C(=O)N[C@@H](CCCNC(=N)N)C(=O)N[C@@H](CCC(=O)O)C(=O)N[C@@H](CCCCN)C(=O)N[C@@H](CC(C)C)C(=O)N[C@@H](CC(N)=O)C(=O)N[C@@H](CCC(=O)O)C(=O)N[C@@H](CC(C(F)(F)F)C(F)(F)F)C(=O)N[C@@H](CC(C)C)C(=O)N[C@@H](CCC(=O)O)C(=O)N[C@@H](C)C(=O)N[C@@H](CC(C)C)C(=O)N[C@@H](CCCCN)C(=O)N[C@@H](CCC(N)=O)C(=O)N[C@@H](CCCCN)C(=O)N[C@@H](CC(C)C)C(=O)N[C@@H](CCCCN)C(N)=O)C(C)C [SEQ ID NO 41, PVLDEFREKLNE-HFLEU-LEALKQKLK] (Ac-PVLDEFREKLNE[Leu(5,5,5,5',5',5'-F6)]LEALKQKLK-NH2; C-terminus assumed)
EC50 [2, 3]: 1.1 µM

11 (Ac-PVLDEFREKLNE[R5H]LEA[R5H]KQKLK; staple 13-17; reading uncertain) [compound 11]
ABCA1-DEPENDENT CHOLESTEROL EFFLUX, % at one concentration ([2]; AT 30 µM / @ 30): <2% AT 30 UM

PS6HLDEFREKLNEELEALKQKLK (Ac-P[S6H]LDEFREKLNEELEALKQKLK; not fully specified (C-terminus)) [SEQ ID NO 23]
activity in the cholesterol efflux / in vitro RCT assay, in words [2]: only slightly active

C=CCCCCC[C@H](NC(=O)[C@H](CCC(=O)O)NC(=O)[C@H](CC(=O)O)NC(=O)[C@H](CC(C)C)NC(=O)[C@@H](NC(=O)[C@@H]1CCCN1C(C)=O)C(C)C)C(=O)N[C@@H](CCCNC(=N)N)C(=O)N[C@@H](CCC(=O)O)C(=O)N[C@@H](CCCCN)C(=O)N[C@@H](CC(C)C)C(=O)N[C@@H](CC(N)=O)C(=O)N[C@@H](CCC(=O)O)C(=O)N[C@H](CCCCC=C)C(=O)N[C@@H](CC(C)C)C(=O)N[C@@H](CCC(=O)O)C(=O)N[C@@H](C)C(=O)N[C@@H](CC(C)C)C(=O)N[C@@H](CCCCN)C(=O)N[C@@H](CCC(N)=O)C(=O)N[C@@H](CCCCN)C(=O)N[C@@H](CC(C)C)C(=O)N[C@@H](CCCCN)C(N)=O [compound 10] (Ac-PVLDE[Ala(5-hexenyl)]REKLNE[dNle(6-vinyl)]LEALKQKLK-NH2; C-terminus assumed)
EC50 ([2]; read-out: ABCA1-DEPENDENT CHOLESTEROL EFFLUX EC50): 1.3 µM

22 (Ac-PVLDEFREKLNEELEALKQXLK; not fully specified (residue 20, C-terminus); printed as PVLDEFREKLNEELEALKQR7HLK) [compound 22]
ABCA1-DEPENDENT CHOLESTEROL EFFLUX, % at one concentration ([2]; AT 100 µM / @ 100): 1.4% @ 100

C=CCCCCC[C@H](NC(=O)[C@H](CCC(=O)O)NC(=O)[C@H](CC(N)=O)NC(=O)[C@H](CC(C)C)NC(=O)[C@H](CCCCN)NC(=O)[C@H](CCC(=O)O)NC(=O)[C@H](CCCN=C(N)N)NC(=O)[C@@H](CCCCC=C)NC(=O)[C@H](CCC(=O)O)NC(=O)[C@H](CC(=O)O)NC(=O)[C@H](CC(C)C)NC(=O)[C@@H](NC(=O)[C@@H]1CCCN1C(C)=O)C(C)C)C(=O)N[C@@H](CC(C)C)C(=O)N[C@@H](CCC(=O)O)C(=O)N[C@@H](C)C(=O)N[C@@H](CC(C)C)C(=O)N[C@@H](CCCCN)C(=O)N[C@@H](CCC(N)=O)C(=O)N[C@@H](CCCCN)C(=O)N[C@@H](CC(C)C)C(=O)N[C@@H](CCCCN)C(N)=O [SEQ ID NO 13, PVLDER6HREKLNES7HLEALKQKLK] (Ac-PVLDE[dNle(6-vinyl)]REKLNE[Ala(5-hexenyl)]LEALKQKLK-NH2)
EC50 [2, 3]: 0.4 µM

CCCCCCCC[C@H](NC(=O)[C@H](CCC(=O)O)NC(=O)[C@H](CC(N)=O)NC(=O)[C@H](CC(C)C)NC(=O)[C@H](CCCCN)NC(=O)[C@H](CCC(=O)O)NC(=O)[C@H](CCCN=C(N)N)NC(=O)[C@H](Cc1ccccc1)NC(=O)[C@H](CCC(=O)O)NC(=O)[C@H](CC(=O)O)NC(=O)[C@H](CC(C)C)NC(=O)[C@@H](NC(=O)[C@@H]1CCCN1C(C)=O)C(C)C)C(=O)N[C@@H](CC(C)C)C(=O)N[C@@H](CCC(=O)O)C(=O)N[C@@H](C)C(=O)N[C@@H](CC(C)C)C(=O)N[C@@H](CCCCN)C(=O)N[C@@H](CCC(N)=O)C(=O)N[C@@H](CCCCN)C(=O)N[C@@H](CC(C)C)C(=O)N[C@@H](CCCCN)C(N)=O [SEQ ID NO 35, PVLDEFREKLNES8H3LEALKQKLK] (Ac-PVLDEFREKLNE[Gly(octyl)]LEALKQKLK-NH2)
EC50 [2, 3]: 0.3 µM

CC(=O)N1CCC[C@H]1C(=O)N[C@H](C(=O)N[C@@H](CC(C)C)C(=O)N[C@@H](CC(=O)O)C(=O)N[C@@H](CCC(=O)O)C(=O)N[C@@H](Cc1ccccc1)C(=O)N[C@@H](CCCNC(=N)N)C(=O)N[C@@H](CCC(=O)O)C(=O)N[C@@H](CCCCN)C(=O)N[C@@H](CC(C)C)C(=O)N[C@@H](CC(N)=O)C(=O)N[C@@H](CCC(=O)O)C(=O)NC(C)(C)C(=O)N[C@@H](CC(C)C)C(=O)N[C@@H](CC(C(=O)O)C(=O)O)C(=O)N[C@@H](C)C(=O)N[C@@H](CC(C)C)C(=O)N[C@@H](CCCCN)C(=O)N[C@@H](CCC(N)=O)C(=O)N[C@@H](CCCCN)C(=O)N[C@@H](CC(C)C)C(=O)N[C@@H](CCCCN)C(N)=O)C(C)C [SEQ ID NO 4, PVLDEFREKLNEAIBLGLAALKQKLK] (Ac-PVLDEFREKLNE[Aib]L[Gla]ALKQKLK-NH2; C-terminus assumed)
EC50 [2, 3]: 41 µM

PR7HLDEFREKLNEELEALKQKLK (Ac-P[dGly(6-heptenyl)]LDEFREKLNEELEALKQKLK; not fully specified (C-terminus)) [SEQ ID NO 20]
activity in the cholesterol efflux / in vitro RCT assay, in words [2]: only slightly active
